Data reported in PMC9643456, “Matching amino acids membrane preference profile to improve activity of antimicrobial peptides” (Communications Biology, 2022).
≈ marks a conversion by molar mass, not a printed value. Square brackets hold non-standard residues; d marks the D form. Peptide text beside a SMILES is read from it.

Tests used:
[1] = system: A. baumannii (KCCM 40203) and S. aureus (KCTC 1621); settings: MIC and sub-MIC exposure for 30 days (30 passages)
Excerpt: (§1) A. baumannii (KCCM 40203) and S. aureus (KCTC 1621) were selected as drug-sensitive bacteria. Mutation-susceptible tetracycline (an antibiotic that targets ribosomes) (Sigma, Darmstadt, Germany) and ofloxacin (an antibiotic that targets DNA gyrase) (Sigma, Darmstadt, Germany), mutation-resistant colistin (an antibiotic that targets lipopolysaccharide) (Sigma, Darmstadt, Germany) and vancomycin (an antibiotic that targets peptidoglycan pentapeptide) (Sigma, Darmstadt, Germany) were used as control antibiotics. The MIC for each antibiotic against bacteria (at OD 0.01) was measured. […] The MIC for each passage was confirmed by additional broth microdilutions under CLSI guidelines. Resistance acquisition was induced for 30 days (30 passages), and each MIC value was confirmed by an independent MIC test against bacteria at each passage.

[2] = system: colistin-resistant A. baumannii; experiment: In vivo activity, survival of infected mice; settings: mouse model infected with colistin-resistant A. baumannii
Protocol: (§2) Female BALB/c mice (8-week old; n = 10) were purchased from orientbio (Gyeonggido, Republic of Korea) and fed under standardized environmental conditions for 1 week to be used to estimate time-dependent mouse survival rates. After inducing neutropenia by intraperitoneal injection of cyclophosphamide (150 mg/kg; Sigma), MDR S. aureus (KCCM 40510), MDR A. baumannii (colistin-resistant strain) or MDR K. pneumonia (colistin-resistant strain, NCCP 16125) was diluted in PBS and subcutaneously injected into mice (S. aureus, 1.5 × 10^8 CFU/ml; A. baumannii, 1 × 10^8 CFU/ml; K. pneumonia, 1 × 10^9 CFU/ml). After bacterial infection, 100 μl of WCopW43 peptide dissolved in distilled water (10 mg/ml) were injected (50 mg/kg) into each infected site, and survival was monitored every 12 h for 7 days. For A. baumannii infection, mice were intraperitoneally injected with mucin ([…], 1% in PBS, 300 μl) to suppress macrophages, and A. baumannii cells were incubated with mucin (1% in PBS) for 3 h before subcutaneous injection of 2 × 10^8 CFU/ml (0.2% mucin in PBS)[71]–[74]. Survival rates were calculated using the formula: 100% × (number of surviving mice/ten mice). One day after WCopW43 (50 mg/kg) injection, four mice were randomly selected and sacrificed by CO2 inhalation. […] Homogenized samples were spread onto MH agar plates, and CFU values were determined after incubation overnight at 37 °C.

[3] = 100 mg/kg s.c. daily for 3 days, n = 3; BUN and creatinine
Protocol: To assess nephrotoxicity, mice (female BALB/c, 8 weeks old; n = 3) were subcutaneously administered WCopW43 (100 mg/kg) or PBS (controls) three times (once every 24 h). Blood samples were then collected from the retroorbital veins into heparin-coated glass capillary tubes (Kimble Chase, NJ, USA), which were then centrifuged at 4000 rpm. The serum was collected and analyzed using a blood urea nitrogen (BUN) assay kit (Arbor Assay, Ann Arbor, USA) and a creatinine assay kit (Arbor Assay). Levels of BUN and blood creatinine clearance were measured using a SpectraMax plate spectrophotometer (Molecular Devices) at 450 nm and 490 nm, respectively.

K. pneumonia strains = experiment: microbe, parasite or virus in culture
[4] = system: MDR A. baumannii, MDR S. aureus or MDR K. pneumonia; experiment: In vivo activity, subcutaneously infected mice; set-up: species or system BALB/c mice
Protocol: as §2

A. baumannii KCCM 40203 = experiment: microbe, parasite or virus in culture; settings: bacteria OD 0.01, CAMHB
Protocol: To assess antimicrobial activity, the MIC50 and MIC90 were measured using broth microdilution following CLSI guidelines. […] Each experiment was performed in triplicate. Meropenem (Sigma, Darmstadt, Germany) and colistin were used as control antibiotics. Cation-adjusted Mueller–Hinton broth (CAMHB) (Becton, Dickinson and Company, Franklin Lakes, USA) with supplied calcium (50 mg/L) and magnesium (10 mg/L) was used for the CLSI-test condition. Bacteria in midlog phase and peptides were separately diluted in CAMHB. The bacteria and peptide solutions were then mixed in 96-well polyethylene plates (SPL, Gyeonggi-do, Korea) and incubated for 18 h at 37 °C. The final concentration for bacteria was 5 × 10^5 CFU/ml. […] The MIC was defined to be the lowest concentration of peptide without visible turbidity by comparing with control antibiotics with the unaided eye. […] Each experiment was performed in triplicate. MICs in albumin and acetic acid solutions were measured using the same protocol but with 0.2% bovine serum albumin (Bovogen, Keilor, Australia), 0.01% acetic acid (Merck, New Jersey, USA), and CAMHB with both calcium and magnesium. In addition, MICs used in the antibiotic resistance acquisition test, the outer–inner membrane permeation test, and the transmembrane potential test and for FE-SEM were individually determined. The final bacterial concentrations used were as follows: for resistance acquisition, optical density (OD) 0.01; for outer–inner membrane permeability assays (LB), OD 0.1; for the transmembrane potential test, 1 × 10^8 CFU/ml (OD 0.171); […]. Inhibitory activity unidentifiable by direct observation was determined by counting the CFUs. Each experiment was performed at least twice.
as §1

MDR S. aureus = experiment: Killing kinetics in the SEM sample; assay type: cell-based, Staphylococcus aureus; settings: 2 × 10^8 cfu/ml, x1 MIC, PBS, after 4 hours
Protocol: FE-SEM was used to observe peptide-induced changes in bacterial morphology. MDR A. baumannii (ATCC BAA-1605) and MDR S. aureus (KCCM 40510) were cultured in CAMHB to log phase and washed in PBS. Bacteria and peptides were diluted in PBS, after which aliquots of bacteria (50 μl) and peptides (50 μl) were mixed to yield the following final concentrations: MDR A. baumannii or MDR S. aureus, 2 × 10^8 CFU/ml; WCopW29, 2.5 μM. Mixtures were deposited onto cover glass slips and incubated for 0 min, 15 min, 30 min, 1 h or 4 h. After incubation, the bacteria were fixed with paraformaldehyde (4%) and osmium tetroxide (1%) (Sigma, Darmstadt, Germany), washed with water, and freeze-dried overnight. Freeze-dried samples were Pt-coated and placed in an S-4700, EMAX System field emission scanning electron microscope (Hitachi, Tokyo, Japan). Bacterial morphologies were imaged and recorded on video at magnifications of 10,000× and 25,000×.
Antimicrobial kinetics for each peptide and each bacterial strain were assessed using FE-SEM. […] Each experiment was performed in triplicate.

E. coli ML35 = settings: ML35, 18 h
Protocol: To assess antimicrobial activity, the MIC50 and MIC90 were measured using broth microdilution following CLSI guidelines. […] Each experiment was performed in triplicate. Meropenem (Sigma, Darmstadt, Germany) and colistin were used as control antibiotics. Cation-adjusted Mueller–Hinton broth (CAMHB) (Becton, Dickinson and Company, Franklin Lakes, USA) with supplied calcium (50 mg/L) and magnesium (10 mg/L) was used for the CLSI-test condition. Bacteria in midlog phase and peptides were separately diluted in CAMHB. The bacteria and peptide solutions were then mixed in 96-well polyethylene plates (SPL, Gyeonggi-do, Korea) and incubated for 18 h at 37 °C. The final concentration for bacteria was 5 × 10^5 CFU/ml. […] The MIC was defined to be the lowest concentration of peptide without visible turbidity by comparing with control antibiotics with the unaided eye. […] MICs in albumin and acetic acid solutions were measured using the same protocol but with 0.2% bovine serum albumin (Bovogen, Keilor, Australia), 0.01% acetic acid (Merck, New Jersey, USA), and CAMHB with both calcium and magnesium. In addition, MICs used in the antibiotic resistance acquisition test, the outer–inner membrane permeation test, and the transmembrane potential test and for FE-SEM were individually determined. […] Inhibitory activity unidentifiable by direct observation was determined by counting the CFUs. […]

Question: With `CC[C@@H](C)[C@@H](NC(=O)[C@@H](Cc1c[nH]c2ccccc12)NC(=O)[C@@H](CCCNC(=N)N)NC(=O)[C@@H](CCCNC(=N)N)NC(=O)[C@H](N)CCCNC(=N)N)C(=O)N[C@H](Cc1c[nH]c2ccccc12)C(=O)N[C@@H](C(=O)N[C@@H](C(=O)N[C@H](Cc1c[nH]c2ccccc12)C(=O)N[C@H](CCCCN)C(N)=O)[C@H](C)CC)C(C)C` [WCopW43] (H-[dR][dR][dR][dW][dI][dW][dV][dI][dW][dK]-NH2) as the compound, how does the “MIC during resistance acquisition” value [1] read?
Answer: emergence of WCopW43 resistance is suppressed

Question: What about the Survival rate [2] of the same compound?
Answer: 100%

Question: What about the Nephrotoxicity indicators [3] of the same compound?
Answer: non-nephrotoxic

Question: And the “MIC, K. pneumonia NCCP 15782” value (K. pneumonia strains; 18 h)?
Answer: 1.25 µM (≈ 1.87 µg/mL)

Question: What about the “MIC, K. pneumonia NCCP 15864” value (K. pneumonia strains; 18 h) of the same compound?
Answer: 1.25 µM (≈ 1.87 µg/mL)

Question: And the “MIC, K. pneumonia NCCP 15866” value (K. pneumonia strains; 18 h)?
Answer: 2.5 µM (≈ 3.74 µg/mL)

Question: And the “MIC, K. pneumonia NCCP 16052” value (K. pneumonia strains; 18 h)?
Answer: 2.5 µM (≈ 3.74 µg/mL)

Question: And the “MIC, K. pneumonia NCCP 16124” value (K. pneumonia strains; 18 h)?
Answer: 1.25 µM (≈ 1.87 µg/mL)

Question: And the “MIC, K. pneumonia NCCP 16125” value (K. pneumonia strains; 18 h)?
Answer: 2.5 µM (≈ 3.74 µg/mL)

Question: What about the “MIC, K. pneumonia NCCP 16128” value (K. pneumonia strains; 18 h) of the same compound?
Answer: 5 µM (≈ 7.49 µg/mL)

Question: And the “MIC, K. pneumonia NCCP 16208” value (K. pneumonia strains; 18 h)?
Answer: 1.25 µM (≈ 1.87 µg/mL)

Question: And the “MIC, K. pneumonia NCCP 16212” value (K. pneumonia strains; 18 h)?
Answer: 2.5 µM (≈ 3.74 µg/mL)

Question: What about the “MIC, K. pneumonia NCCP 16213” value (K. pneumonia strains; 18 h) of the same compound?
Answer: 1.25 µM (≈ 1.87 µg/mL)

Question: What about the “Decrease of bacterial burden (CFU)” value ([4]; WCopW43 50 mg/kg s.c. 1 h after infection, tissue CFU one day after infection, vs PBS) of the same compound?
Answer: ~ 90%

Question: What about the “Survival compared with PBS-injected mice” value ([4]; WCopW43 50 mg/kg s.c., neutropenic BALB/c mice, n = 10, 7 days) of the same compound?
Answer: survived longer

Question: For Colistin, which “MIC at resistance induction condition, A. baumannii KCCM 40203” value (A. baumannii KCCM 40203) is on record?
Answer: 1.25 µM

Question: And the Survival rate [2]?
Answer: 90%

Question: What about the “MIC, K. pneumonia NCCP 15782” value (K. pneumonia strains; CLSI) of the same compound?
Answer: 1.25 µM

Question: What about the “MIC, K. pneumonia NCCP 15864” value (K. pneumonia strains; CLSI) of the same compound?
Answer: 0.63 µM

Question: And the “MIC, K. pneumonia NCCP 15866” value (K. pneumonia strains; CLSI)?
Answer: 0.63 µM

Question: And the “MIC, K. pneumonia NCCP 16052” value (K. pneumonia strains; CLSI)?
Answer: 0.63 µM

Question: What about the “MIC, K. pneumonia NCCP 16124” value (K. pneumonia strains; CLSI) of the same compound?
Answer: 20 µM

Question: What about the “MIC, K. pneumonia NCCP 16128” value (K. pneumonia strains; CLSI) of the same compound?
Answer: 5 µM

Question: What about the “MIC, K. pneumonia NCCP 16208” value (K. pneumonia strains; CLSI) of the same compound?
Answer: < 0.31 µM

Question: And the “MIC, K. pneumonia NCCP 16212” value (K. pneumonia strains; CLSI)?
Answer: < 0.31 µM

Question: And the “MIC, K. pneumonia NCCP 16213” value (K. pneumonia strains; CLSI)?
Answer: 0.63 µM

Question: Which “Loss of colony forming” value (MDR S. aureus) does the source give for `CC[C@@H](C)[C@@H](NC(=O)[C@@H](Cc1c[nH]c2ccccc12)NC(=O)[C@H](NC(=O)[C@@H](CC(C)C)NC(=O)[C@H](N)Cc1c[nH]c2ccccc12)C(C)C)C(=O)N[C@H](Cc1c[nH]c2ccccc12)C(=O)N[C@H](CCCNC(=N)N)C(=O)N[C@H](CCCNC(=N)N)C(=O)N[C@H](CCCNC(=N)N)C(N)=O` [WCopW29] (H-[dW][dL][dV][dW][dI][dW][dR][dR][dR]-NH2) here?
Answer: 90%

Question: And the “MIC at resistance induction condition, A. baumannii KCCM 40203” value (A. baumannii KCCM 40203)?
Answer: 1.25 µM (≈ 1.71 µg/mL)

Question: And the “MIC during resistance acquisition” value [1]?
Answer: stable over a period of 30 days

Question: And the “MIC at OM-IM permeation condition, E. coli ML35” value (E. coli ML35)?
Answer: 5 µM (≈ 6.85 µg/mL)
